This note sets out measurements from publication PMC12624743 (ACS Infectious Diseases, 2025).

For orientation: IC50 means the concentration at which inhibition is half-maximal.

Where only a bound is given, the exact number is not on record here.

Test [1] has as its target T1, N. gonorrhoeae gyrase GyrA^D95G (Neisseria gonorrhoeae, UniProt P48371, D95G).
T1 construct: His; made in house
Put plainly: Gyrase-catalyzed DNA supercoiling assay, GyrA^D95G. The test is classed as biochemical. The method, then: (§1) All proteins were His-tagged. N. gonorrhoeae WT gyrase (GyrA, GyrB) and topoisomerase IV (ParC, ParE) subunits as well as mutant GyrA^D90N, GyrA^A92T, GyrA^S91F, and GyrA^S91F/D95G gyrase and ParC^D86N and ParC^S88P topoisomerase IV were prepared as described previously. , N. gonorrhoeae mutant GyrA^D95G gyrase and mutant ParC^S87N and ParC^E91G topoisomerase IV were generated using a QuickChange II XL site-directed mutagenesis kit (Agilent Technologies) with custom primers for the desired mutations. […] The identities of all constructs were confirmed by DNA sequencing, and all enzymes were stored at −80 °C. In all assays, N. gonorrhoeae gyrase or topoisomerase IV was used as a 1:1 GyrA:GyrB or ParC:ParE mixture, respectively, and the stated enzyme concentration reflects that of the holoenzyme (A2B2).
(§2) Samples were mixed with 2 μL of loading dye [60% sucrose, 10 mM Tris–HCl (pH 7.9), 0.5% bromophenol blue, and 0.5% xylene cyanol FF] and incubated at 45 °C for 2 min before being subjected to electrophoresis on 1% agarose gels in 100 mM Tris-borate (pH 8.3) and 2 mM EDTA. […] DNA bands were visualized with medium-range ultraviolet light and quantified using an Alpha Innotech digital imaging system (Protein Simple). DNA supercoiling was monitored by the conversion of relaxed to supercoiled plasmid.

Test [2] has as its target T2, N. gonorrhoeae gyrase GyrA^D90N (Neisseria gonorrhoeae, UniProt P48371, D90N).
T2 construct: His; made in house
Put plainly: Gyrase-catalyzed DNA supercoiling assay, GyrA^D90N. The format is biochemical. To be noted: read-out: IC50, inhibition of DNA supercoiling. The protocol: as §1, §2

Test [3] concerns the target T3, N. gonorrhoeae gyrase GyrA^A92T (Neisseria gonorrhoeae, UniProt P48371, A92T).
T3 construct: His; made in house
Put plainly: Gyrase-catalyzed DNA supercoiling assay, GyrA^A92T. The test is classed as biochemical. The method, then: as §1, §2

The target of test [4] is N. gonorrhoeae topoisomerase IV ParC^S87N (Neisseria gonorrhoeae, UniProt P48374, S87N). Put plainly: Topoisomerase IV-catalyzed DNA decatenation assay, ParC^S87N. The arrangement: His; made in house. The test is classed as biochemical. The protocol:
(§3) All proteins were His-tagged. N. gonorrhoeae WT gyrase (GyrA, GyrB) and topoisomerase IV (ParC, ParE) subunits as well as mutant GyrA^D90N, GyrA^A92T, GyrA^S91F, and GyrA^S91F/D95G gyrase and ParC^D86N and ParC^S88P topoisomerase IV were prepared as described previously. , N. gonorrhoeae mutant GyrA^D95G gyrase and mutant ParC^S87N and ParC^E91G topoisomerase IV were generated using a QuickChange II XL site-directed mutagenesis kit (Agilent Technologies) with custom primers for the desired mutations. Mutant N. gonorrhoeae GyrA and ParC subunits were expressed and purified as described by Ashley et al. with the following modifications to optimize protein expression and lysis: (1) GyrA^D95G was expressed for 2.5 h and ParC^S87N and ParC^E91G were expressed for 3 h before harvesting, and (2) cells were lysed by sonication using a digital sonifier (Branson). The identities of all constructs were confirmed by DNA sequencing, and all enzymes were stored at −80 °C. In all assays, N. gonorrhoeae gyrase or topoisomerase IV was used as a 1:1 GyrA:GyrB or ParC:ParE mixture, respectively, and the stated enzyme concentration reflects that of the holoenzyme (A2B2). […]

Test [5] deals with WT N. gonorrhoeae topoisomerase IV. Nature of the test: Topoisomerase IV-catalyzed DNA decatenation assay, WT. The format is biochemical, Neisseria gonorrhoeae. The note with it: decatenation IC50 vs supercoiling IC50, WT enzymes. The method, then: as §3
For test [6], the system named is N. gonorrhoeae topoisomerase IV ParC^S87N. Nature of the test: Topoisomerase IV-catalyzed DNA decatenation assay, ParC^S87N. The test is classed as biochemical, Neisseria gonorrhoeae. The note with it: ParC S87N vs WT. The method, then: as §3
Test [7] concerns the target T4, N. gonorrhoeae gyrase GyrA^S91F/D95G (Neisseria gonorrhoeae, UniProt P48371, D95G/S91F).
T4 construct: His; made in house
Put plainly: DNA cleavage assay, GyrA^S91F/D95G gyrase. The test is classed as biochemical. The protocol: Some experiments replaced MgCl2 with an equivalent concentration of CaCl2 (10 mM), or 1.5 mM ATP was added to assay mixtures.
Reactions were incubated at 37 °C for 30 min with WT and mutant (GyrA^D90N, GyrA^A92T, GyrA^S91F, GyrA^D95G, or GyrA^S91F/D95G) N. gonorrhoeae gyrase, 10 min with WT N. gonorrhoeae topoisomerase IV, and 20 min with mutant (ParC^D86N, ParC^S88P, ParC^S87N, or ParC^E91G) N. gonorrhoeae topoisomerase IV. Enzyme-DNA cleavage complexes were trapped by adding 2 μL of 5% SDS followed by 2 μL of 250 mM EDTA (pH 8.0). Proteinase K was added (2 μL of a 0.8 mg/mL solution), and reaction mixtures were incubated at 45 °C for 30 min to digest the enzyme. Samples were mixed with 2 μL of loading buffer and heated at 45 °C for 2 min prior to electrophoresis in 1% agarose gels in 40 mM Tris-acetate (pH 8.3), and 2 mM EDTA containing 0.5 μg/mL ethidium bromide. DNA bands were visualized by midrange ultraviolet light and quantified using an Alpha Innotech digital imaging system (Protein Simple). Single-stranded DNA cleavage was monitored by the conversion of negatively supercoiled to nicked plasmid molecules.

The target of test [8] is T4, N. gonorrhoeae gyrase GyrA^S91F/D95G. Nature of the test: Gyrase-catalyzed DNA supercoiling assay, GyrA^S91F/D95G. The test is classed as biochemical. To be noted: read-out: IC50, inhibition of DNA supercoiling. The protocol:
as §1, §2

T4 sequence (P48371 whole entry S91F/D95G): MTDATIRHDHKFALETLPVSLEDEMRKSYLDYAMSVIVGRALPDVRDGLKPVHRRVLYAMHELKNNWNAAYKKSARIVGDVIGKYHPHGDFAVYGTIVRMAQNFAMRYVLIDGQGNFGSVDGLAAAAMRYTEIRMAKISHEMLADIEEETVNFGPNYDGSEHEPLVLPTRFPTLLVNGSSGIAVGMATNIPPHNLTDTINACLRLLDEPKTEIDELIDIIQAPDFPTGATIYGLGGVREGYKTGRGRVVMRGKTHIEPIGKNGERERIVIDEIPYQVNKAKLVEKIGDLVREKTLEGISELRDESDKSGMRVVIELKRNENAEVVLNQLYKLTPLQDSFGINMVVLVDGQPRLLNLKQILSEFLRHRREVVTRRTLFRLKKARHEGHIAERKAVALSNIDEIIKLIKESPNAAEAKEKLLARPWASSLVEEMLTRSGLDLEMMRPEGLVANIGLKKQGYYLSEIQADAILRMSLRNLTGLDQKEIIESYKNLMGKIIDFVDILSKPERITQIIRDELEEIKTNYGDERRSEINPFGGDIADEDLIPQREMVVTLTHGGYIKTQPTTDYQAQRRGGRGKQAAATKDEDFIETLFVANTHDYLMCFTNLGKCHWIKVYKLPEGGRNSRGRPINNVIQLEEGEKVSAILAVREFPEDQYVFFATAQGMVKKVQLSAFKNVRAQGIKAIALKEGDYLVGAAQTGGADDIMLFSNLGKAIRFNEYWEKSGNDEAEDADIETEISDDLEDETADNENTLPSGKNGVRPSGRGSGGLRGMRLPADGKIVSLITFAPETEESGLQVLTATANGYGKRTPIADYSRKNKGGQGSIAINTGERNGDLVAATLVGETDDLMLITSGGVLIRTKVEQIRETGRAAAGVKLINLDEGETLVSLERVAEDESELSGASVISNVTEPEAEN
T4 sequence (P22118 whole entry partner): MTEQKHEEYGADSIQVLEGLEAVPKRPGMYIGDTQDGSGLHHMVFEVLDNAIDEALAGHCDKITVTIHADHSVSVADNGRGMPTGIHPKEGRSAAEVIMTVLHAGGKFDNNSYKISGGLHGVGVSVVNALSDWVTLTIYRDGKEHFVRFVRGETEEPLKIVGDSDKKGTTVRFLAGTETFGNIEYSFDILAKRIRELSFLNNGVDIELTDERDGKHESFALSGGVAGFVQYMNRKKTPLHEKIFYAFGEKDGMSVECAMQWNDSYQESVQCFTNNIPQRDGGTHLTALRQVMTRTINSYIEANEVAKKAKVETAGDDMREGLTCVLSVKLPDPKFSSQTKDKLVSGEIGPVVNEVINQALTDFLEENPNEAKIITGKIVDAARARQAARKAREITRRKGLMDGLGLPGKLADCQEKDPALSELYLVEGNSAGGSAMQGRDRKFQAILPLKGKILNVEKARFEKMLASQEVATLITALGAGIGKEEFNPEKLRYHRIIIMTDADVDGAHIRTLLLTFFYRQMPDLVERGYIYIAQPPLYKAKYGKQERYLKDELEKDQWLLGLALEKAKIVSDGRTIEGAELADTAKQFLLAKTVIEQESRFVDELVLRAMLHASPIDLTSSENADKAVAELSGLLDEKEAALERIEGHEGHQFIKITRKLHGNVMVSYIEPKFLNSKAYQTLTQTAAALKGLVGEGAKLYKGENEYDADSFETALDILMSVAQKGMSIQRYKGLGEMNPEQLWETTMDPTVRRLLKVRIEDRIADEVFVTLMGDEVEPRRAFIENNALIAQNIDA
T1 sequence (P48371 whole entry D95G): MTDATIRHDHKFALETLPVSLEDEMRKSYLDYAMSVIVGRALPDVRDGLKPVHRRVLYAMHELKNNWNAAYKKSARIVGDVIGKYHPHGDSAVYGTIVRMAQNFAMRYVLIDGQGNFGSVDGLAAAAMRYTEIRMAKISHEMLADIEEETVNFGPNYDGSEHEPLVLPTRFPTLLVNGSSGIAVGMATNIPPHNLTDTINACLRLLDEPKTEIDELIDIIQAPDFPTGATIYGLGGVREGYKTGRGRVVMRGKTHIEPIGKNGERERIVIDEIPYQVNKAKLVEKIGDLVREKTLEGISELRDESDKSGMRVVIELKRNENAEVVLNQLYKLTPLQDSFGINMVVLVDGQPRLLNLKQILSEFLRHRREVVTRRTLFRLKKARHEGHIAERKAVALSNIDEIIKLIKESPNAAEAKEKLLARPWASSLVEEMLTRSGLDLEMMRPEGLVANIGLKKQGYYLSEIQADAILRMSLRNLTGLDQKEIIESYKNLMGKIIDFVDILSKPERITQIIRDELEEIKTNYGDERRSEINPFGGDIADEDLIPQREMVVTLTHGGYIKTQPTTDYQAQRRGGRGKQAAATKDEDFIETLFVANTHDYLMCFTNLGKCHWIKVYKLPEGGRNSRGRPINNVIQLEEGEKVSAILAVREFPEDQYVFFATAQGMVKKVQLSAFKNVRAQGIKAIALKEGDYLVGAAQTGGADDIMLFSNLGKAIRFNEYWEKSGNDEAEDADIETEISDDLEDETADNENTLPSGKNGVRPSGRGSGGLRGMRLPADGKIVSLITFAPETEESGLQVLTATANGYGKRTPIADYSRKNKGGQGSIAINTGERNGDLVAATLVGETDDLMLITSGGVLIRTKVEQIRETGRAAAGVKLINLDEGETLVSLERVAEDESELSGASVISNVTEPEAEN
T1 sequence (P22118 whole entry partner): as the sequence (P22118 whole entry partner) above
Sequence of N. gonorrhoeae topoisomerase IV ParC^S87N (Neisseria gonorrhoeae, UniProt P48374, S87N) (P48374 whole entry S87N): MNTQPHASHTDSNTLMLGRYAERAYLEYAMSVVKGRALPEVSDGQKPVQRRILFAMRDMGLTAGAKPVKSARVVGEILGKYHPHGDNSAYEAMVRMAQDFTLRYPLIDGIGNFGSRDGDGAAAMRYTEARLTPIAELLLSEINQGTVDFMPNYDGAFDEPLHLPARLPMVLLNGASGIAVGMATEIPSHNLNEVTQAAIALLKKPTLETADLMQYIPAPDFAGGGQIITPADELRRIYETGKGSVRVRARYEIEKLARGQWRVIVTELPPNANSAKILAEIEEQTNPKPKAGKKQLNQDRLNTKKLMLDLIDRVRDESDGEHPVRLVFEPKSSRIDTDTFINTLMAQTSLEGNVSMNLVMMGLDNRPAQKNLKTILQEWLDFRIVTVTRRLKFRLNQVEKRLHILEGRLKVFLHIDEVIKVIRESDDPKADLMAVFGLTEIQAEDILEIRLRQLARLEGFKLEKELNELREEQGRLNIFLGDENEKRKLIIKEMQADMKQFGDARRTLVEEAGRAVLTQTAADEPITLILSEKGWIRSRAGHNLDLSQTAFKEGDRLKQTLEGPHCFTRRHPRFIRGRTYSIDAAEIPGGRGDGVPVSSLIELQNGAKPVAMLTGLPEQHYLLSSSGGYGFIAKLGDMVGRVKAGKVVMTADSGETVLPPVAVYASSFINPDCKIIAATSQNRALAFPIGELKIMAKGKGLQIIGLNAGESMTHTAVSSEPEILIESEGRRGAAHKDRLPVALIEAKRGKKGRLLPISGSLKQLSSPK

As for `O=c1ccc2ncc(=O)n3c2n1C[C@H]3CN1CCC(NCc2cc3c(cn2)OCCC3)CC1` [gepotidacin], the IC50 is 2000 nM in test [1] (GyrA D95G gyrase, read-out: IC50, inhibition of DNA supercoiling); greater than 100000 nM in test [2]; 8500 ± 2100 nM in test [3] (GyrA A92T gyrase, read-out: IC50, inhibition of DNA supercoiling); 800 nM in test [4]; 3600 ± 2400 nM in test [8]. In addition, in test [1] (GyrA D95G vs WT), the “fold lower supercoiling IC50 vs WT gyrase” value was roughly 2.6 fold. Also, the “fold increase of supercoiling IC50 vs WT gyrase” value in test [3] (GyrA A92T vs WT) is recorded as roughly 1.7 fold. The “fold greater potency (IC50) against topoisomerase IV over gyrase” value in test [5] is reported as roughly 2.8 fold. Besides, in test [6], the “fold lower decatenation IC50 vs WT topoisomerase IV” value is roughly 2.3 fold. In addition, the “Adj-Max Cleavage, single-stranded DNA breaks” value in test [7] is 3.9%. For the same molecule, the EC50 in test [7] (GyrA S91F/D95G gyrase, read-out: CC50, single-stranded DNA cleavage) amounted to 800 nM. Further, in test [7] (GyrA S91F/D95G vs WT), the “fold decrease of adjusted maximal DNA cleavage vs WT” value is reported as roughly 4.4 fold.
